Assays:
[1] = Cyclic voltammetry of Fe(III)-FOXE derivative complexes (redox potential, Fe(II) stability constants); assay type: physicochemical; settings: for E1/2 vs NHE: CV; for E1/2 vs NHE / logβFe(II): [L] = 2 × 10^–3 M, M:L 1:1, pH = 7, T = 25 °C; for E°complex: [Fe(III)] = 2·10^-3 M, M:L ratio 1:1, pH = 7, T = 25°C, I = 0.1M NaClO4, glass-carbon working electrode; for logβFe(II): calculated from CV measurement
Procedure: Redox chemistry of Fe(III) species was determined in cyclic voltammetry (CV) assays. […] We have obtained quasireversible voltammograms for Fe(III)-FOXE analog complexes (Figure S8), with ΔE ranging from −369 mV to −470 mV. The values of E1/2 (Table 1) were recalculated vs normal hydrogen electrode (NHE). To ensure that only fully hexacoordinated complexes [FeL] were characterized, experiments were carried out at fixed pH = 7 where this form is dominating in solution. Higher strength of the complex (larger pM value) correlates to lower redox potential. This behavior was in agreement with previously reported data[61],[62] for similar complexation systems.
Redox potentials for Fe(III)-FOXE derivatives were determined using cyclic voltammetry with a VA 797 Computrace Voltammeter (Metrohm) equipped with glass-carbon, AgCl/Cl, and platinum wire electrodes. Concentration of the measured samples was [Fe(III)] = 2 × 10^–3, M:L ratio 1:1, at 25.0 ± 0.1 °C; pH 7.0 was provided by addition of a suitable amount of NaOH under control of a pH meter. The scan range was from −0.3 V to −1 V in a cycle: Fe(III)–FOX [drawing 1] Fe(II)–FOX [drawing 2] Fe(III)–FOX. Received data (Figure S8) was standardized for the NHE electrode. The electrochemical data were refined to obtain the overall Fe(II)-FOXE derivative binding constant (logβFe(II)L^–) by implementing the Nernst equation (S1).
Figure S8. CV voltammograms used to calculate (logβ) constants for studied complexes a with
Fe(II) ions: a) FOX 2-2, b) Fe-FOX 2-3, c) FOX 2-4, d) FOX 2-5, e) FOX 3-5
aConditions: [Fe(III)] = 2·10^-3 M, M:L ratio 1:1, pH = 7, T = 25°C, I = 0.1M NaClO 4 on glass-carbon working
For each complex the stability constant for Fe(II)-analog was calculated using eq. S10
E complex ― Eaq = ―59.15log (βII) (S10)
Table S9. E 1/2 and stability (logβ) constants for studied complexes with Fe(II) ions a […]

[2] = Ligand–ligand competition UV–vis titrations of Fe(III) complexes vs EDTA; assay type: physicochemical; settings: [L] = 1.5·10^-4 M, M:L ratio 1:1, pH = 7, T = 25°C, I = 0.1 M NaClO4
Procedure: In this series of experiments, the stock solution of FOX ligand was divided into various batches followed by metal addition with a constant total volume of 2 mL, [Fe(III)] = 2 × 10^–4, and a metal-to-ligand molar ratio of 1:1. The EDTA ligand was added to a previously prepared series of solutions in increasing concentration, from a 0 to 10 molar excess for FOX 2-5 and from a 0 to 1.2 molar excess for the rest of the derivatives. pH was adjusted to ∼7 with the NaOH solution. After preparation, each solution was allowed to equilibrate for 3–7 days, depending on the investigated complex. Changes were observed between the collected spectra, and they were measured consequently until no further changes were present. The UV–vis spectra were recorded (Figure S4), and competition data were refined to obtain the overall Fe(III)-FOXE derivative binding constant (logβFe(III)L). The protonation constants of FOXE derivatives (Table S4) and formation constants for Fe(III)-FOXE derivative complex species (Table S5) were treated as fixed parameters in data analysis.
The spectrophotometric competition experiments with EDTA
The spectrophotometric competition experiments with EDTA were performed at fixed pH 7.0,
to compete effectively with the tris-hydroxamates for ferric ion at intermediate pH values (5-8)
if an excess of EDTA is used. The competition equilibrium is described by equations (S5) and
Fe IIIL  EDTA K  FeIII EDTA  L (S5)
[FeIII L][EDTA]  Fe(III)L (S6)
The competition data were refined to obtain the overall Fe(III)-FOX binding constant logβ FeL
(Table S7) for analogs using a model involving two ligands and one metal.
The concentration of Fe(III)-analog complex for each derivative, [FeL], was calculated from
the absorbance maximum at around 420 nm (where FeL is the only light-absorbing species) and
previously determined extinction coefficients. The concentrations of other species in equation
(S6) were calculated from mass balance equations using the experimental pH values:
[Fe]tot =  FeL[FeL] +  FeEDTA[FeEDTA]
[L]tot =  FeL[FeL] +  L[L]
[EDTA]tot =  FeEDTA[FeEDTA] +  EDTA[EDTA]
a is the usual Ringbom’s coefficient.

[3] = Ligand protonation constants by potentiometric titration; assay type: physicochemical; settings: [L] = 1·10^-3 M, T = 25°C, I = 0.1 M NaClO4
Procedure: Potentiometric titrations were performed using an automatic titrator system Titrando 905 (Metrohm) equipped with a 800 Dosino dosing unit and a microburet with a volume of 2 mL. A combined glass electrode was calibrated each day for hydrogen ion concentration by 0.1 M HClO4 with CO2-free 0.1 M NaOH solutions. A stream of high purity grade argon, presaturated with water vapor, passed over the surface of the solution cell, filled with 3 mL of the studied solution. For each system, a minimum of four independent titrations was performed. The purity of ligand and accurate concentration of ligand solution were determined before each experiment with the Gran method[68] by potentiometric titration of the 3 mL sample of the ligand, with [L] ∼ 1 × 10^–3 M. In separate potentiometric titrations, the metal-to-ligand ratio was 1:1, and the concentration of metal was 2 × 10^–3 M. The potentiometric data were refined to obtain the overall Fe(III)-FOXE and Ga(III)-FOXE derivative binding constants (logβFe(III)L, logβGa(III)L). […]
Ligand’s protonation constants
The acid-base properties of investigated ligands were studied by potentiometric technique. The optimized logβ values defined by equations (S1) and (S2) were calculated using […] 1 […]
or Hyperquad 20062 programs (Table S4). For the sake of simplicity charges are omitted in all chemical equilibria given here.
Table S4. Protonation (logβ H) constants for studied ligandsa […]
aConstants determined from potentiometric titrations. Conditions: [L] = 1·10^-3 M, T = 25°C, I = 0.1 M NaClO 4, b Ref 3 […]

[4] = Fe(III) complex stability constants by potentiometric and pH-dependent UV–vis titrations; assay type: physicochemical; settings: I = 0.1 M NaClO4; for logβ[FeHL]+ / logβ[FeL] / pKNHOH of Fe(III) complex: M:L 1:1, T = 25°C; for logβFe(III)L: potentiometric [L] = 1 × 10^–3 M and UV–vis 5 × 10^–5 M, M:L 1:1, T = 25 °C
[5] = Distribution coefficient (logD) of ^68Ga-labeled ligands between octanol and PBS
[6] = UV-Vis pH-dependent titrations, 1·10^-4 M
[7] = potentiometric, [L] = 1·10^-3 M

| E1/2 vs NHE [1] | E°complex [1] [mV] | logβFe(II) [1] | logβ[FeL] [2] | protonation constant logβ, H2L + H+ ↔ H3L [3] | protonation constant logβ, HL + H+ ↔ H2L [3] | protonation constant logβ, L + H+ ↔ HL [3] | logβ[FeHL]+ [4, 6] | logβFe(III)L [4] | logβ[FeL] [4, 7] | pKNHOH of Fe(III) complex [4, 7] | logD at 20 min [5] | logβ[FeL] [4, 6] | pKNHOH of Fe(III) complex [4, 6] | SMILES |
| --- | --- | --- | --- | --- | --- | --- | --- | --- | --- | --- | --- | --- | --- | --- |
| –369 mv | -369 | 7.48 | 26.57 (4) | 27.62(2) | 19.28(1) | 9.97(1) | 30.64 (6) | 25.92(8) | 25.92 (8) | 4.72 | -2.66 |  |  | O=C1CCN(O)C(=O)CCNC(=O)CCN(O)C(=O)CCNC(=O)CCN(O)C(=O)CCN1 [FOX 2-2] |
| –432 mv | -432 | 7.54 | 26.55 (3) | 27.71(1) | 19.27(1) | 9.94(1) | 30.44 (5) | 27.22(2) | 27.22 (2) | 3.22 | -2.96 | 26.70 (9) | 3.74 | O=C1CCCN(O)C(=O)CCNC(=O)CCCN(O)C(=O)CCNC(=O)CCCN(O)C(=O)CCN1 [FOX 2-3] |
| –426 mv | -426 | 9.12 | 27.13 (1) | 27.64(1) | 19.21(1) | 9.93(1) | 30.83 (4) | 28.71(7) |  |  | -3.02 | 28.71 (7) | 2.12 | O=C1CCCCN(O)C(=O)CCNC(=O)CCCCN(O)C(=O)CCNC(=O)CCCCN(O)C(=O)CCN1 [FOX 2-4] |
| –452 mv | -452 | 11.29 | 28.81 (1) | 26.53(1) | 19.09(1) | 9.86(1) |  |  |  |  | -1.9 | 31.32 (8) |  | O=C1CCCCCN(O)C(=O)CCNC(=O)CCCCCN(O)C(=O)CCNC(=O)CCCCCN(O)C(=O)CCN1 [FOX 2-5] |
| –416 mv | -416 | 8.48 | 28.38 (1) | 27.79(1) | 19.53(1) | 10.19(1) |  |  | 28.81 (1) | 2.32 | -1.57 | 28.59 (3) | 2.54 | O=C1CCCCCN(O)C(=O)CCCNC(=O)CCCCCN(O)C(=O)CCCNC(=O)CCCCCN(O)C(=O)CCCN1 [FOX 3-5] |

Reference: paper PMC8653149, “Cyclic Analogs of Desferrioxamine E Siderophore for ^68Ga Nuclear Imaging: Coordination Chemistry and Biological Activity in Staphylococcus aureus” (Inorganic Chemistry, 2021)
